This is an account of results in patent publication US20200172483A1, “HETEROCYCLIC SMALL MOLECULE MODULATORS OF HUMAN STING” (Curadev Pharma Limited, priority 2017, published 2020).

T1 sequence (Q86WV6 whole entry H232R): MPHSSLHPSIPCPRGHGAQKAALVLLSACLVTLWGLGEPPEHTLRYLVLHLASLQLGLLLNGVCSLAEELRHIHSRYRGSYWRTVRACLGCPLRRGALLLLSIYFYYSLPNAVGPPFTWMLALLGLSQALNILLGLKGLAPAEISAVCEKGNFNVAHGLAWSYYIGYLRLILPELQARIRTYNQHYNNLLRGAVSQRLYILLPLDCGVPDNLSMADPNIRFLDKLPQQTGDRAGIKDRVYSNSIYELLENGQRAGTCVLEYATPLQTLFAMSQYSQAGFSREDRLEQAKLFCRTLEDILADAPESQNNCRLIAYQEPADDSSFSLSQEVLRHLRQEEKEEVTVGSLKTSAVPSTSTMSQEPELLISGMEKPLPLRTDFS

This test has as its target T1, WT/R232 STING protein (Homo sapiens, UniProt Q86WV6, H232R).
T1 construct: host or cells: HEK293T
Briefly: Luciferase reporter assay in HEK293T-hSTING-Luciferase cells (R232). The test is classed as cell-based. As to conditions: 20 hr stimulation, EC50 range. From the text: • a) Stable STING expressing cells—Stable HEK293T STING-expressing cell lines were generated using plasmids purchased from Invivogen, CA, USA, that contain STING cDNA cloned into the pUNO-1 vector under hEF1-HTLV promoter and containing the Blasticidin selection cassette. The plasmids hSTING (R232), hSTING (H232), hSTING (HAQ) were directly procured from Invivogen while hSTING (AQ) and hSTING (Q) were derived from hSTING (HAQ) and hSTING (R232) plasmids respectively by using a PCR based site directed mutagenesis method. These vectors were individually transfected into HEK293T cells using Lipofectamine (Invitrogen) and transfected cells were selected under Blasticidin selection. These transfected cells were further subjected to clonal selection using the limiting dilution method to obtain clonally pure populations of HEK cells transfected with each of the above mentioned human STING variants. Only those clones were selected in which ligand independent activation of STING was minimal. • b) Stable Luciferase reporter gene expressing cells—Stable HEK293T Luciferase reporter gene expressing cell lines were generated using pCDNA4 plasmids under an IRF-inducible promoter. This promoter is comprised of five tandem interferon-stimulated response elements (ISRE) fused to an ISG54 minimal promoter. This vector was transfected into HEK293T cells using Lipofectamine (Invitrogen) and transfected cells were selected under Zeocin selection. These transfected cells were further subjected to clonal selection using the limiting dilution method to obtain clonally pure populations of HEK cells transfected the Luciferase reporter construct. Only those clones were selected in which ligand independent induction of luciferase was minimal.
5×10^5 clonally selected HEK293T-hSTING-Luciferase cells were seeded in 384-well plates in growth medium and stimulated with novel compounds. After 20 hr of stimulation supernatant were removed and secretary reporter gene activity were measured using the Quanti-Luc detection system (Invivogen) on a Spectramax i3X luminometer.
All compounds were first tested in a primary screen using WT/R232 STING protein to obtain a ‘fold-induction’ over baseline levels of protein activity.
Background: In a reporter assay the amount or activity of a reporter protein is the signal.
Regarding `CC1(C(N)=O)C(=O)N(Cc2cc(F)cc(F)c2)c2cc(C(=O)NCc3c(F)cc(F)cc3F)ccc21` (stereo not drawn) [Example 170], the half-maximal effective concentration (EC50) (commonly the midpoint of the concentration-response curve) was greater than 10 µM.

As to `CC1(C)C(=O)N(Cc2ccc(F)cc2)c2cc(C(=O)NCc3ccco3)ccc21` [Example 41, 1-(4-fluorobenzyl)-N-(furan-2-ylmethyl)-3,3-dimethyl-2-oxoindoline-6-carboxamide], the concentration for a half-maximal effect (EC50) lay within 1 to 10 µM.

`CC1(C)C(=O)N(Cc2cc(F)cc(F)c2)c2cc(C(=O)NCc3cc4ccccc4o3)cnc21` [Example 193, N-(benzofuran-2-ylmethyl)-1-(3,5-difluorobenzyl)-3,3-dimethyl-2-oxo-2,3-dihydro-1H-pyrrolo[3,2-b]pyridine-6-carboxamide]: the EC50 was greater than 10 µM.

`Cc1cc(CN2C(=O)C(C)(C)c3ccc(C(=O)NCc4c(F)cc(F)cc4F)cc32)on1` [Example 52, 3,3-dimethyl-1-((3-methylisoxazol-5-yl)methyl)-2-oxo-N-(2,4,6-trifluorobenzyl)indoline-6-carboxamide]: the EC50 is greater than 10 µM.

With `CC1(C)C(=O)N(Cc2c(F)cccc2Cl)c2cc(C(=O)NCc3cccc4occc34)ccc21` [Example 93, N-(benzofuran-4-ylmethyl)-1-(2-chloro-6-fluorobenzyl)-3,3-dimethyl-2-oxoindoline-6-carboxamide], the 50% effective concentration (EC50) is greater than 10 µM.

In turn, `CC1(C)C(=O)N(Cc2c(F)cccc2C(F)(F)F)c2cc(C(=O)NCc3c(F)cc(F)cc3F)ccc21` [Example 84, 1-(2-fluoro-6-(trifluoromethyl)benzyl)-3,3-dimethyl-2-oxo-N-(2,4,6-trifluorobenzyl)indoline-6-carboxamide] yielded an EC50 of 1 to 10 µM.

For the compound `COc1cc(F)c(CN2C(=O)C(C)(C)c3ccc(C(=O)NCc4c(F)cc(F)cc4F)cc32)c(F)c1` [Example 64, 1-(2,6-difluoro-4-methoxybenzyl)-3,3-dimethyl-2-oxo-N-(2,4,6-trifluorobenzyl)indoline-6-carboxamide], the 50% effective concentration (EC50) was no more than 1 µM.

As for `COC1(C)C(=O)N(Cc2c(F)cccc2Cl)c2cc(C(=O)NCc3c(F)cc(F)cc3F)ccc21` (stereo not drawn) [Example 151], the EC50 lay within 1 to 10 µM.

For `CC1(C)C(=O)N(Cc2nc3ccccc3o2)c2cc(C(=O)NCc3c(F)cc(F)cc3F)ccc21` [Example 101, 1-(benzo[d]oxazol-2-ylmethyl)-3,3-dimethyl-2-oxo-N-(2,4,6-trifluorobenzyl)indoline-6-carboxamide], the EC50 is greater than 10 µM.

On to `Cc1cc(CN2C(=O)C(C)(C)c3ccc(C(=O)NCc4c(F)cc(F)cc4F)cc32)cc(C(F)(F)F)c1` [Example 15, 3,3-dimethyl-1-(3-methyl-5-(trifluoromethyl)benzyl)-2-oxo-N-(2,4,6-trifluorobenzyl)indoline-6-carboxamide], for which the half-maximal effective concentration (EC50) was 1 to 10 µM.

Turning to `CC1(F)C(=O)N(Cc2cc(F)cc(F)c2)c2cc(C(=O)NCc3c(F)cc(F)cc3F)ccc21` (stereo not drawn) [Example 150, 1-(3,5-difluorobenzyl)-3-fluoro-3-methyl-2-oxo-N-(2,4,6-trifluorobenzyl)indoline-6-carboxamide], the EC50 lay in the range of 1 to 10 µM.

On to `O=C(NCc1ccco1)c1ccc2c(c1)N(Cc1c(F)cccc1Cl)C(=O)C21CC1` [Example 139, 1′-(2-chloro-6-fluorobenzyl)-N-(furan-2-ylmethyl)-2′-oxospiro[cyclopropane-1,3′-indoline]-6′-carboxamide], for which the 50% effective concentration (EC50) is greater than 10 µM.

Turning to `O=C(NCc1ccco1)c1ccc2c(c1)N(C(=O)c1c(F)cccc1Cl)CC2` [Example 135, 1-(2-chloro-6-fluorobenzoyl)-N-(furan-2-ylmethyl)indoline-6-carboxamide], the 50% effective concentration (EC50) is greater than 10 µM.

Compound `CC1(C)C(=O)N(Cc2c(F)ccc(O)c2Cl)c2cc(C(=O)NCc3c(F)cc(F)cc3F)ccc21` [Example 67, 1-(2-chloro-6-fluoro-3-hydroxybenzyl)-3,3-dimethyl-2-oxo-N-(2,4,6-trifluorobenzyl)indoline-6-carboxamide] had a concentration for a half-maximal effect (EC50) of no more than 1 µM.

`O=C(NCc1ccco1)c1ccc2sc(=O)n(Cc3c(F)cccc3Cl)c2c1` [Example 201, 3-(2-chloro-6-fluorobenzyl)-N-(furan-2-ylmethyl)-2-oxo-2,3-dihydrobenzo[d]thiazole-5-carboxamide] registered a concentration for a half-maximal effect (EC50) greater than 10 µM.

In turn, `CC1(O)C(=O)N(Cc2ccccc2F)c2cc(C(=O)NCc3ccco3)ccc21` (stereo not drawn) [Example 149, 1-(2-fluorobenzyl)-N-(furan-2-ylmethyl)-3-hydroxy-3-methyl-2-oxoindoline-6-carboxamide] showed an EC50 greater than 10 µM.

Consider `Cc1ccc(CN2C(=O)C(C)(C)c3ccc(C(=O)NCc4cc(F)cc(F)c4)cc32)o1` [Example 125, N-(3,5-difluorobenzyl)-3,3-dimethyl-1-((5-methylfuran-2-yl)methyl)-2-oxoindoline-6-carboxamide], for which the EC50 was greater than 10 µM.

As for `CC1(C)C(=O)N(Cc2ccccn2)c2cc(C(=O)NCc3c(F)cc(F)cc3F)ccc21` [Example 99, 3,3-dimethyl-2-oxo-1-(pyridin-2-ylmethyl)-N-(2,4,6-trifluorobenzyl)indoline-6-carboxamide], the 50% effective concentration (EC50) fell in the range of 1 to 10 µM.

The compound `CC1(C)C(=O)N(Cc2c(F)cccc2Cl)c2cc(C(=O)NCc3cc4cc(O)ccc4o3)ccc21` [Example 88, 1-(2-chloro-6-fluorobenzyl)-N-((5-hydroxybenzofuran-2-yl)methyl)-3,3-dimethyl-2-oxoindoline-6-carboxamide] returned an EC50 of 1 to 10 µM.

In turn, `CC1C(=O)N(Cc2c(F)cccc2Cl)c2cc(C(=O)NCc3c(F)cc(F)cc3F)ccc21` (stereo not drawn) [Example 21, 1-(2-chloro-6-fluorobenzyl)-3-methyl-2-oxo-N-(2,4,6-trifluorobenzyl)indoline-6-carboxamide] yielded a half-maximal effective concentration (EC50) greater than 10 µM.

`Cc1ccc(-c2nc(CN3C(=O)C(C)(C)c4ccc(C(=O)NCc5c(F)cc(F)cc5F)cc43)c(C)o2)cc1` [Example 129, 3,3-dimethyl-1-((5-methyl-2-(p-tolyl)oxazol-4-yl)methyl)-2-oxo-N-(2,4,6-trifluorobenzyl)indoline-6-carboxamide]: the concentration for a half-maximal effect (EC50) was greater than 10 µM.

`Cc1cccc(CNC(=O)c2ccc3c(c2)N(Cc2cc(F)cc(F)c2)C(=O)C3(C)C)n1` [Example 28, 1-(3,5-difluorobenzyl)-3,3-dimethyl-N-((6-methylpyridin-2-yl)methyl)-2-oxoindoline-6-carboxamide] had a concentration for a half-maximal effect (EC50) greater than 10 µM.

As to `CCC1(O)C(=O)N(Cc2c(F)cccc2Cl)c2cc(C(=O)NCc3c(F)cc(F)cc3F)ccc21` (stereo not drawn) [Example 158, 1-(2-chloro-6-fluorobenzyl)-3-ethyl-3-hydroxy-2-oxo-N-(2,4,6-trifluorobenzyl)indoline-6-carboxamide], the concentration giving a half-maximal response (EC50) was greater than 10 µM.

As to `Cc1ccc(CNC(=O)c2cnc3c(c2)N(Cc2c(C)cccc2F)C(=O)C3(C)C)o1` [Example 196, 1-(2-fluoro-6-methylbenzyl)-3,3-dimethyl-N-((5-methylfuran-2-yl)methyl)-2-oxo-2,3-dihydro-1H-pyrrolo[3,2-b]pyridine-6-carboxamide], the EC50 is greater than 10 µM.

For the compound `CC1(C)C(=O)N(Cc2cc(F)cc(F)c2)c2cc(C(=O)NCc3nc4ccccc4s3)ccc21` [Example 40, N-(benzo[d]thiazol-2-ylmethyl)-1-(3,5-difluorobenzyl)-3,3-dimethyl-2-oxoindoline-6-carboxamide], the half-maximal effective concentration (EC50) is 1 to 10 µM.

The compound `Cn1nc(C(F)(F)F)cc1CN1C(=O)C(C)(C)c2ccc(C(=O)NCc3c(F)cc(F)cc3F)cc21` [Example 113, 3,3-dimethyl-1-((1-methyl-3-(trifluoromethyl)-1H-pyrazol-5-yl)methyl)-2-oxo-N-(2,4,6-trifluorobenzyl)indoline-6-carboxamide] had a concentration giving a half-maximal response (EC50) of 1 to 10 µM.

`Cn1c(=O)n(Cc2ccccc2Cl)c2cc(C(=O)NCc3ccco3)ccc21` [Example 202, 3-(2-chlorobenzyl)-N-(furan-2-ylmethyl)-1-methyl-2-oxo-2,3-dihydro-1H-benzo[d]imidazole-5-carboxamide] registered a 50% effective concentration (EC50) greater than 10 µM.

Compound `CC1(C)C(=O)N(Cc2ccc(F)c(F)c2)c2cc(C(=O)NCc3ccco3)ccc21` [Example 46, 1-(3,4-difluorobenzyl)-N-(furan-2-ylmethyl)-3,3-dimethyl-2-oxoindoline-6-carboxamide] gave an EC50 of 1 to 10 µM.

In turn, `O=C(NCc1c(F)cc(F)cc1F)c1ccc2c(c1)N(Cc1c(F)cccc1Cl)C(=O)C2(O)c1ccccc1` (stereo not drawn) [Example 160, 1-(2-chloro-6-fluorobenzyl)-3-hydroxy-2-oxo-3-phenyl-N-(2,4,6-trifluorobenzyl)indoline-6-carboxamide] displayed a concentration for a half-maximal effect (EC50) greater than 10 µM.

Consider `CC1(C)C(=O)N(Cc2ccc(F)cc2)c2nc(C(=O)NCc3c(F)cc(F)cc3F)ccc21` [Example 181, 1-(4-fluorobenzyl)-3,3-dimethyl-2-oxo-N-(2,4,6-trifluorobenzyl)-2,3-dihydro-1H-pyrrolo[2,3-b]pyridine-6-carboxamide], for which the concentration for a half-maximal effect (EC50) was greater than 10 µM.
